row,SMILES,melting point [°C]
1,CNC(=O)c1cc(Oc2ccc(NC(=O)Nc3ccc(Cl)c(C(F)(F)F)c3)cc2)ccn1,82 to 85
2,O=C1Nc2cc(C(F)(F)F)ccc2C1c1cc(Cl)ccc1O (stereo not drawn),266 to 268
3,CC1CC2(CC3CCC4C5CCC(=O)C5(C)CCC4C13C)OCCO2 (stereo not drawn),154
4,O=c1nc(-c2c(F)cccc2F)oc(=O)n1-c1ccc(Cl)c(Cl)c1,196 to 197
5,CC(C)(C)OC(=O)N1CCC(c2ccc(COc3cccc([N+](=O)[O-])c3)nc2)CC1,94 to 96
6,CN1C(=O)C(c2ccc(Cl)cc2)S(=O)C1c1cccnc1 (stereo not drawn),149 to 153
7,CCOC(=O)c1ccc(Br)cc1COC(C)=O,51.5 to 52.5
8,C=Cc1ccc(NN2C(=O)c3ccccc3C2=O)cc1,174 to 176
9,O=C1c2ccccc2C(O)N1CCCCCCl (stereo not drawn),77 to 79
10,O=C(NCCO)c1cccc(-c2nccc3cc(Cc4cccc(C(F)(F)F)c4)oc23)c1,168 to 169
11,CCOCc1nc2c(N)nc3ccccc3c2n1CCOCC#Cc1ccccc1,111 to 112
12,Cc1cc(SCC#Cc2ccc(C(F)(F)F)cc2)ccc1OCC(=O)O,130 to 131
13,COC(=O)CC1CCN(C(=O)c2cnc(-c3ccc(C(=N)NC(=O)OC)cc3)nc2OC)CC1,193 to 195
14,COc1ccc2c(c1)OCC(NNc1ncnc3c1ncn3C1OC(CO)C(O)C1O)C2 (stereo not drawn),205 to 207
15,Clc1[nH]ncc1-c1csc(Nc2ccccn2)n1,299 to 304
16,CC(C)(O)COCc1onc(-c2ccccc2)c1-c1ccc(S(N)(=O)=O)cc1,160 to 162
17,Cc1nc(NC(=O)N(C)C)nc(C)c1Cl,127 to 129
18,NCC(=O)N(Nc1nncc(-c2ccccc2)n1)C(=O)OCc1ccccc1,166 to 167
19,COc1ccc2c(c1)C(=O)CC1C2CCC2(C)C(O[Si](C)(C)C(C)(C)C)CCC12 (stereo not drawn),159 to 160
20,CS(=O)(=O)c1ccc(Nc2nccc(N3CCCc4c(O)cccc43)n2)cc1,242 to 245
21,CCCCc1oc2ccc(NS(=O)(=O)c3ccc(C)cc3)cc2c1C(=O)c1ccc(OCCCN(CCCC)CCCC)cc1,110
22,Cc1noc(NS(=O)(=O)c2ccccc2-c2ccc(-c3ncco3)cc2Cn2ccnc2C(C)C)c1C,184 to 188
23,CCCCCCCCCCC(O)CNCCNCC(O)CCCCCCCCCC (stereo not drawn),137 to 142
24,O=C(Nc1ccc(OC(F)(F)F)cc1)NC1CCN(C(=O)c2ccc(Cl)nc2)CC1,208 to 209
25,Cn1c(C(F)(F)F)cc(=O)n(-c2ccc3snc(C4OCC(CS(C)(=O)=O)O4)c3c2)c1=O (stereo not drawn),184 to 188

row,SMILES,melting point [°C]
1,C#Cc1cnc2c(C)cc(OC(SC)C(=O)NC(C)(C#C)COC)cc2c1 (stereo not drawn),108 to 109
2,CCCC(=O)Nc1n[nH]c2c(F)c(F)ccc12,191
3,Cn1cnc(Cc2cccc3c2OC(C)(C)OC3)c1,67 to 72
4,CCc1ccc2oc(=O)c(NC(=O)Nc3ccc(F)cc3F)c(-c3ccccc3C)c2c1,210 to 211
5,COc1cc(CSc2nc3cnccc3[nH]2)cc(OC)c1,177 to 179
6,CC(=NNC(=N)N)c1sc(-c2ccc3ccccc3c2)nc1C,288 to 290
7,COC(=O)Cc1cc2ccc(OC)cc2[nH]c1=O,195 to 196
8,CCCCCC(=O)NC[C@H](CC(C)C)NC(=O)[C@H]1O[C@@H]1C(=O)OCC,120 to 121
9,COC(=O)c1cccc(Oc2cccc(-c3nn(C)c(=Nc4ccc(Cl)c(Cl)c4)s3)c2)c1,193 to 196
10,c1ccc(CN2CCC(c3nc(-c4ccc(-c5ccccc5)cc4)c[nH]3)CC2)cc1,110 to 112
11,N#Cc1cnc2cc(Cl)c([N+](=O)[O-])cc2c1Nc1ccc(Oc2ccccc2)cc1,220 to 222
12,Nc1ccc(C(O)(Cc2ccccc2)c2ccccc2)cc1 (stereo not drawn),105 to 107
13,O=C(C1CCC(Nc2ncc3ncnc(Nc4ccc(F)c(Cl)c4)c3n2)CC1)N1CCNCC1 (stereo not drawn),178 to 182
14,COc1cccc(Cc2nc3n(-c4c(Cl)cc(Cl)cc4Cl)[nH]c(SC)c-3c(=O)n2)c1,245 to 248
15,COCCOc1cc2ncnc(NC3=CC(=O)C(Oc4ccccc4C)=CC3=O)c2cc1OC,134 to 137
16,CC1(C)OC(=O)Nc2c(Br)cc(-c3cc(F)cc(C#N)c3)cc21,216 to 217
17,"O=C(NC(CS)Cc1ccccc1)N1CCCCCC1 (single isomer, unassigned; (+))",102
18,Cn1cc(-c2ccc3c(c2)C(C)(C)CCC3(C)C)cc1C=CC(=O)O,165 to 166
19,Cn1ccc(C(=O)c2sc(NC(=O)c3ccncc3)nc2-c2ccco2)c1,209 to 211
20,CC(O)C1C(=O)N2C1=CC(=O)C2C(=O)OCc1ccc([N+](=O)[O-])cc1 (stereo not drawn),92 to 98
21,CC(C)(C)c1cc(C(=O)NC2CCCCC2)cc(C(C)(C)C)c1O,236 to 237
22,O=C(O)c1cn2c3c(c(F)c(F)cc3c1=O)OCC2,> 300
23,CC(C)C(c1cncnc1C(F)(F)F)N1CCN(c2ccccc2)C1=O (stereo not drawn),126 to 128
24,Cc1ccc2c(c1)S(=O)(=O)NCN2CCF,88 to 90
25,CCCCCCCCCCCCCCc1c[nH]c(C=O)c1,70 to 71

row,SMILES,melting point [°C]
1,CC(C)(C)NC(=O)Nc1nc2nc(N)ncc2cc1-c1ccccc1,> 250
2,CCOC(=O)Cc1cc(Br)c(OC(=S)N(C)C)c(Br)c1,93 to 95
3,CCOc1c(C(=O)O)oc2c3cc(OC)ccc3n(-c3ccccc3)c12,166 to 167
4,Cc1ccc2nc(NC3=NCCN3)[nH]c2c1,264 to 266
5,CCn1c(NC=O)nc(N2CCc3ccccc3CC2)c(C#N)c1=O,> 200
6,CCOc1c(C)c(N2CCN(c3ccc(F)cc3)CC2)c(C)c2c1OC(C)C2 (stereo not drawn),136 to 138
7,Cc1cc(O)c(O)c(O)c1,114 to 121
8,Nc1nc(-c2ccc(CCN3CCN(c4cccc5cc(F)ccc45)CC3)cc2)cs1,220 to 225
9,Cc1cc(C=CC(=O)O)c(Cl)nc1C,150 to 158
10,Nc1c(F)c(N2CC(n3cncn3)C2)c(F)c2c1c(=O)c(C(=O)O)cn2C1CC1,293 to 295
11,O=C(c1cc2cc(O)ccc2[nH]1)C12CC3CC(CC(C3)C1)C2,197 to 199
12,CC(=O)c1cc2cnccc2n1S(=O)(=O)c1ccccc1,205
13,CCCCCCCCCCCCCCCCCCOc1cc(OCCCOc2ccc(C(C)(C)C)cc2)cc(N(CC(=O)OC)CC(=O)OC)c1,56 to 58
14,Nc1cc(=O)nc(Nc2ccccc2)n1-c1ccc(Br)cc1,211 to 213
15,O=C(c1ccco1)N1CCN(c2cc(-c3ccccc3)c3c(n2)CCCC3)CC1,128 to 130
16,Cc1cc(Nc2cc(-c3cnc4cc[nH]c4c3)cn3ccnc23)nn1CCO,127 to 130
17,O=c1[nH]c2ccc(N3CCOCC3)cc2c(=O)o1,235
18,CC1(C)[C@H](C(=O)OCc2cnc(Cc3ccccc3)s2)[C@@H]1C=C(Br)Br,66
19,NS(=O)(=O)c1ccc(-c2noc(-c3cnn4c(C(F)(F)F)cc(-c5ccc(C(F)(F)F)c(OCC(F)(F)F)c5)nc34)n2)s1,255
20,O=c1oc(Nc2ccccc2I)nc2ccccc12,140 to 143
21,CC1C(=O)N(C2CCCC2)C(=S)N1c1ccc(Oc2ccccc2)cc1 (stereo not drawn),99
22,Cn1cc(-c2cc(Oc3ccccc3)c(Cl)cc2F)c(=O)cc1C(F)(F)F,159 to 161
23,N#Cc1ccc(OCCNC(=O)C2Cc3ccccc3N2S(=O)(=O)c2ccc(-c3cccc(C(F)(F)F)c3)cc2)cc1 (stereo not drawn),70 to 80
24,CCCCCCN(C)c1ccc(C=C2SC(=S)N(CC(=O)NC)C2=O)cc1,228 to 230
25,O=C1NCCc2cc(F)ccc21,107 to 108

row,SMILES,melting point [°C]
1,CCCc1ccc(NC2CCN(c3ccc(OC[C@@]4(C)Cn5cc([N+](=O)[O-])nc5O4)cc3)CC2)cc1,222 to 223
2,CC1=C(C)C(=O)N(c2ccc(Cl)c(C=C(Cl)C#N)c2)C1=O,139 to 140
3,CCc1ccc(Nc2c(F)c(F)cc(F)c2F)c(CC(=O)N(C)C)c1,105 to 106
4,Cc1nc(-c2cccc([N+](=O)[O-])c2)cs1,87 to 88
5,Cc1sc(-c2cn[nH]c2)nc1O,124 to 125
6,C(#Cc1cccs1)C1=CCN(Cc2c[nH]c3ncccc23)CC1,191 to 193
7,CN1CCN(C2=Nc3ccccc3S(=O)(=O)N2)CC1,265 to 267
8,C[Si](C)(C)OC(Cn1cncn1)(Cn1cncn1)c1ccc(F)cc1F,69 to 71
9,O=C(C1CCCCCC1)N1c2ccccc2CCC1CN1CCN(c2cccc3[nH]ccc23)CC1 (stereo not drawn),167 to 173
10,CCC(=O)C(O)(Cc1ccc(C)cc1)c1ccc(N2CCOCC2)cc1 (stereo not drawn),160
11,COc1cccc2c(=O)c(C)c3sc4ccccc4nc-3c12,170 to 171
12,Cc1noc(NS(=O)(=O)c2ccccc2-c2ccc(-c3ncco3)cc2CC(=O)NC(C)(C)C)c1C,117 to 123
13,O=C1CNc2ncc(I)cc2N1Cc1cccnc1Cl,249
14,COc1cc(C(=O)N(C2CCCC2)C2CCCC2)ccc1Cn1cccc2ncnc1-2,223 to 224
15,COc1cc(C=CCN(C)CCc2ccc(N=C(N)c3cccs3)cc2)cc(OC)c1O,153 to 154
16,CN1C2CCCC1CC(NC(=O)c1cccc3nc(-c4ccc(F)cc4)oc13)C2 (stereo not drawn),229 to 231
17,N=C(O)c1cc(C(O)=NCCO)c(C(=O)O)cc1C(=O)O,279 to 280
18,Cc1cccc(C(=O)N2CCC3(CC2)CSC2=C(O3)c3ccccc3C(=O)C2=O)c1,188 to 190
19,CS(=O)c1ccc(-c2c(-c3ccncc3)nc3n2CCC3)cc1 (stereo not drawn),180 to 182
20,COc1cc2c(cc1OC)CC(N1CC(O)CC1=O)CC2 (stereo not drawn),178 to 179
21,CCC1SC(NC)=NN1C(=O)C(C)(C)C (stereo not drawn),78.5 to 80
22,NC(=O)c1ncn2c1[C@@H]1CCN1C(=O)c1c-2ccc(F)c1Cl,296 to 298
23,CN1Cc2c(-c3nnc(CCl)o3)ncn2-c2ccccc2C1=O,221 to 222
